Data as given in EP2657347A1, “Electrochemical competitive assay and use thereof” (Université Paris Diderot - Paris 7, priority 2012, dated 2013).

What was measured:
[1] = tested on: 49-mer scramble oligonucleotide; assay: Redox-mediated catalytic cyclic voltammetry titration with random DNA control; format: binding; details: random sequence with the same GC ratio
Method: 2-Amino-1,3-propanediol hydrochloride (Aldrich), 2-amino-1,3-propanediol (Aldrich), NaCl (Fluka), MgCl2 (Sigma), 1-tyrosinamide (Aldrich), d-tyrosinamide (Millegen, France), paracetamol (Aldrich) and tyrosine (Sigma), triphenylphosphine (Aldrich), diethylazidocarboxylate solution (DEAD) (Aldrich), and ferrocene methanol (Aldrich) were used without further purification. All syntheses were performed with freshly distilled solvents (THF and MeOH). The oligonucleotides (1-DNA and d-DNA) were synthesized and HPLC-purified by Eurogentec (Anger, France) and their concentration was controlled by UV-Vis spectroscopy using a Nanodrop 2000 spectrophotometer (ThermoFisher). The oligonucleotides sequences were: • Apt49-T: (SEQ ID NO: 1) 5'-[…] ― 3' • Scramble: (SEQ ID NO: 2) 5'- […] ― 3'
All experiments were performed in 5 mM Tris buffer (pH 7) containing 10 mM MgCl2 and 50 mM NaCl (Recognition Buffer, RBr). The L-Tym concentration is always 5 µM. For cyclic voltammetric experiments, 1 µM [Os(bpy)3]2+ with 5 µM 1-Tym in a droplet of 50 µL RBr was used. So, before each experiment, the droplet is shaking with a micropipette. This procedure is repeated until we obtain a reproducible and stable voltammogram. Mother solution of Fc-1-Tym was a […] solution in DMF. This product is conserved at 4°C and seal with parafilm. […]

[2] = molecular target: D-Apt49; assay: Redox-mediated catalytic cyclic voltammetry titration with aptamer; format: binding
Method: All experiments were performed in 5 mM Tris buffer (pH 7) containing 10 mM MgCl2 and 50 mM NaCl (Recognition Buffer, RBr). The L-Tym concentration is always 5 µM. For cyclic voltammetric experiments, 1 µM [Os(bpy)3]2+ with 5 µM 1-Tym in a droplet of 50 µL RBr was used. So, before each experiment, the droplet is shaking with a micropipette. This procedure is repeated until we obtain a reproducible and stable voltammogram. Mother solution of Fc-1-Tym was a […] solution in DMF. This product is conserved at 4°C and seal with parafilm. Before each experiment, this solution is diluted 10 times in stabilized DMF, such as 0.2 µL in 50 µL of RBr leads to 5 µM of Fc-1-Tym.
Cyclic voltammetry measurements were performed with an AUTOLAB PGSTAT 12 potentiostat/galvanostat controlled by computer, and the data were acquired using GPES 4.9007 software (EcoChemie, The Netherlands). Small self-contained electrochemical cells made of 3 screen-printed electrodes on a flat substrate were used for all experiments. The electrodes were printed using a DEK model-65 screen-printer. Working electrodes were 4 mm diameter screen-printed carbon electrodes prepared using a commercial carbon ink (Electrodag PF-470 A) deposited on the top of an underlying Ag layer (Electrodag 418 SS). Counter electrode was obtained using an Ag ink (Electrodag 418 SS).
Before experiments, the screen-printed carbon electrodes were coated with bovine serum albumin (BSA) by immersing the electrodes in a 1 mg/mL BSA solution for 10 minutes at room temperature. The BSA-modified electrodes were next cycled between 0 V and 0.8 V at v = 0.05 V/s, until of the capacitive background current in cyclic voltammetry was stablized.
The 49-mer aptamer we have used (see here above) is a sequence similar to the one that was previously selected by Vianini et al and successfully applied to chromatographic- and fluorescence-based L-Tym assays. Since direct electrochemical oxidation of phenolic compounds generally leads to electrode passivation and thus to poorly reproducible anodic peak current in cyclic voltammetry (CV), the electrochemical detection of L-Tym was performed by redox-mediated catalytic oxidation of the phenolic function. For such a purpose, we have used the one-electron redox mediator couple [Os^III/II(bpy)3]^3+/2+ which, according to its relatively high standard potential (E^0=+0.58 V vs. Ag/AgCl), is capable to efficiently catalyze the oxidation of phenolic compounds. [drawing 51]
The linear dependence of the peak current with both the square root of scan rate, v, and L-Tym concentration, indicates conditions of total catalysis for which the catalytic peak current response, ip, can be expressed by eq 1. ip = 0.609nFSCT^0 sqrt(DT)sqrt(fv/RT) [formula] where n is the number of electron involved in the catalytic reaction, F the Faraday constant, S the electrode area, C^0T the bulk concentration of L-Tym, and DT the diffusion coefficient of L-Tym. After aptamer addition, the binding reaction (eq 2) is rapidly set at equilibrium. [drawing 53] with Kd the dissociation constant. On the basis of a classical law of action mass and mass balance (i.e., C^0T = CT + CRT, with CT and CRT the free and receptor-bound target concentrations), and assuming a 1:1 binding stoichiometry, the free (χƒ) mole fraction of target in the bulk solution can thus be estimated by eq 3. χf = (CT)/(CT^0) = 1-(Kd + CT^0 + CR^0 -sqrt(((Kd+CT^0+CR^0))^2 -4CT^0 CR^0))/(2CT^0) [formula]
Here, C^0R is the total concentration of the aptamer receptor added to the solution. Under the assumption of a slow interconversion of free and bound target on the time scale of CV experiments, the catalytic peak current can thus be expressed by a linear combination of the catalytic currents related to the free and bound target through eq 4. ip = 0.609nFSCT^0 sqrt(fv/RT)[χfsqrt(DT)+(1-χf)sqrt(DRT)] [formula] where DT and DRT are the diffusion coefficients of the free and receptor-bound target, respectively. […]

## NC(=O)[C@@H](N)Cc1ccc(O)cc1 [L-Tym, L-tyrosinamide]
[1]
  current response when the aptamer was replaced by a 49-mer random DNA sequence: no significant current response decrease
[2]; 5 µM target, 1 µM [Os(bpy)3]2+, 5 mM Tris buffer pH 7.0, 50 mM NaCl, 10 mM MgCl2, nonlinear fit of eq 5
  Kd: 2900 ± 300 nM
[2]; L-Tym bound to D-Apt49, assuming one electron exchanged
  DRT (diffusion coefficient of the receptor-bound target): 1.4 × 10^-6 cm^2 s^-1
[2]; free L-Tym, assuming one electron exchanged
  DT (diffusion coefficient of the free target): 7 × 10^-6 cm^2 s^-1
